Source: patent publication US3954780A, “Propionic acid derivatives” (Innothera, priority 1970, dated 1976)
≈ marks a conversion by molar mass, not a printed value. Read-outs that look alike come from different tables or passages of the source.

What was measured:
[1] = Acute toxicity in the mouse (DL50, method of Miller and Tainter); details: in vivo, read-out: DL 50 (the source's name)
Source text: The acute toxicity of the amine ester derivatives of β-[ benzo(b)thienyl-3]propionic acid have been studied in the mouse by intraperitoneal and oral routes, the products being administered in an isotonic solution of sodium chloride, 0.9%, or in suspension in a dilute aqueous solution of carboxymethyl cellulose.
The calculation of the DL50 has been effected according to the method of MILLER and TAINTER (MILLER. L.C., TAINTER M.L. - Proc. Soc. Exptl. Biol. Med. 1944-57-261,264).

[2] = test system: isolated rat duodenum; experiment: Spasmolytic activity of papaverinic type, barium chloride contracture; details: Tyrode 38°; for EC50: read-out: Spasmolytic activity Papaverinic type DE 50 (converted)
Procedure: a. To show activity of the papaverinic type, the contracturant used is barium chloride acting on the isolated rat duodenum.
The average activity of the substances studied has been effected by determining graphically their DE 30 and DE 50 these being expressed in μg for 20 ml of bath.

[3] = test system: isolated ileum of the guinea-pig; experiment: Spasmolytic activity of atropinic type, acetylcholine chloride contracture; details: Tyrode 33°; for EC50: Cavia porcellus, read-out: Spasmolytic activity Atropinic type DE 50 (converted)
Source text: b. To show activity of atropinic type the contracturant used is acetylcholine chloride acting on the isolated ileum of the guinea-pig. […]

[4] = test system: acute oedema provoked by serotonine in the rat; experiment: Anti-serotonic activity, serotonine-induced acute paw oedema; format: in vivo; details: 30 minutes before serotonine
Procedure: This has been researched in the rat by the technique of the acute oedema localised in the metatarsal region, provoked by the injection of 0.05 ml of a 0.01% solution of serotonine (sulphate of 5-hydroxy-tryptamine-creatinine) in an isotonic solution of sodium chloride.
The plethysmometric measurements of the paw having been subjected to the injection have been effected before, and at different times after, the injection of the serotonine.
The derivatives to be studied have been administered by the oral route 30 minutes before the serotonine.

In the case of C=CCC(Cc1csc2ccccc12)C(=O)OCCN1CCCCCC1 (centres unmarked) [Compound 5], the LD50 ([1]; ip) is reported as 150 ± 17 mg/kg, the “Spasmolytic activity Papaverinic type DE 30” value [2] is reported as 13.0 μg for 20 ml of bath and the EC50 [2] is reported as 1 µg/mL (≈ 2.69 µM). For the same compound, the EC50 [3] was 9 µg/mL (≈ 24.2 µM) and the “Spasmolytic activity Atropinic type DE 30” value [3] was 95 μg/20 ml of bath.

With C=CCC(Cc1csc2ccccc12)C(=O)OCCCN(C)C (centres unmarked) [Compound 6] the LD50 ([1]; ip) was roughly 120 mg/kg, the “Spasmolytic activity Papaverinic type DE 30” value [2] was 9.0 μg for 20 ml of bath and the EC50 [2] was 1 µg/mL (≈ 3.02 µM).

For C=CCC(Cc1csc2ccccc12)C(=O)OC(C)CN1CCCC1 (centres unmarked) [Compound 11], the LD50 ([1]; ip) was 270 ± 59 mg/kg, the “Spasmolytic activity Papaverinic type DE 30” value [2] was 4.0 μg for 20 ml of bath and the EC50 [2] was 0.6 µg/mL (≈ 1.68 µM).

For O=C(OCCN1CCCC1)C(Cc1cccs1)Cc1csc2ccccc12 (centres unmarked) [Compound 37], the LD50 ([1]; ip) was 320 ± 21 mg/kg, the “Spasmolytic activity Papaverinic type DE 30” value [2] was 6.8 μg for 20 ml of bath and the EC50 [2] was 0.65 µg/mL (≈ 1.63 µM). The EC50 [3] was 4 µg/mL (≈ 10 µM) and the “Spasmolytic activity Atropinic type DE 30” value [3] was 50 μg/20 ml of bath.

With CCN(CC)CCCOC(=O)C(Cc1cccs1)Cc1csc2ccccc12 (centres unmarked) [Compound 42] the LD50 ([1]; ip) was 240 ± 18 mg/kg, the “Spasmolytic activity Papaverinic type DE 30” value [2] was 3.5 μg for 20 ml of bath and the EC50 [2] was 0.85 µg/mL (≈ 2.05 µM). For the same compound, the EC50 [3] was 15 µg/mL (≈ 36.1 µM) and the “Spasmolytic activity Atropinic type DE 30” value [3] was 190 μg/20 ml of bath.

With O=C(OCCCN1CCCC1)C(Cc1cccs1)Cc1csc2ccccc12 (centres unmarked) [Compound 43] the LD50 ([1]; ip) was 160 ± 11 mg/kg, the “Spasmolytic activity Papaverinic type DE 30” value [2] was 7.0 μg for 20 ml of bath and the EC50 [2] was 1.25 µg/mL (≈ 3.02 µM).

In the case of O=C(OCCN1CCCC1)C(Cc1csc2ccccc12)CC1CCCO1 (centres unmarked) [Compound 49], the LD50 ([1]; ip) is reported as 140 ± 9 mg/kg, the LD50 ([1]; v.o. (oral) route) is reported as roughly 650 mg/kg and the “Spasmolytic activity Papaverinic type DE 30” value [2] is reported as 1.6 μg for 20 ml of bath. For the same compound, the EC50 [2] was 0.185 µg/mL (≈ 0.477 µM), the EC50 [3] was 1.4 µg/mL (≈ 3.61 µM) and the “Spasmolytic activity Atropinic type DE 30” value [3] was 21 μg/20 ml of bath. For the same compound, the “average percentage reduction in oedema after 1 hour” value ([4]; 30 mg/kg oral) was 17.8% and the “average percentage reduction in oedema after 2 hours” value ([4]; 30 mg/kg oral) was 12.6%.

For O=C(OCCN1CCCCC1)C(Cc1csc2ccccc12)CC1CCCO1 (centres unmarked) [Compound 50], the LD50 ([1]; ip) was 122 ± 12 mg/kg, the “Spasmolytic activity Papaverinic type DE 30” value [2] was 5.0 μg for 20 ml of bath and the EC50 [2] was 0.6 µg/mL (≈ 1.49 µM). The EC50 [3] was 3.5 µg/mL (≈ 8.72 µM) and the “Spasmolytic activity Atropinic type DE 30” value [3] was 48 μg/20 ml of bath.

In the case of O=C(OCCN1CCCCCC1)C(Cc1csc2ccccc12)CC1CCCO1 (centres unmarked) [Compound 51], the LD50 ([1]; ip) is reported as 121 ± 10 mg/kg, the “Spasmolytic activity Papaverinic type DE 30” value [2] is reported as 3.5 μg for 20 ml of bath and the EC50 [2] is reported as 0.325 µg/mL (≈ 0.782 µM). For the same compound, the EC50 [3] was 4.75 µg/mL (≈ 11.4 µM) and the “Spasmolytic activity Atropinic type DE 30” value [3] was 61 μg/20 ml of bath.

In the case of O=C(OCCCN1CCCCC1)C(Cc1csc2ccccc12)CC1CCCO1 (centres unmarked) [Compound 55], the LD50 ([1]; ip) is reported as 85 ± 12 mg/kg, the LD50 ([1]; v.o. (oral) route) is reported as roughly 450 mg/kg and the “Spasmolytic activity Papaverinic type DE 30” value [2] is reported as 3.5 μg for 20 ml of bath. For the same compound, the EC50 [2] was 0.375 µg/mL (≈ 0.902 µM), the “average percentage reduction in oedema after 1 hour” value ([4]; 30 mg/kg oral) was 12.3% and the “average percentage reduction in oedema after 2 hours” value ([4]; 30 mg/kg oral) was 11.3%. For the same compound, the “average percentage reduction in oedema after 1 hour” value ([4]; 50 mg/kg oral) was 40.7% and the “average percentage reduction in oedema after 2 hours” value ([4]; 50 mg/kg oral) was 39.8%.
